The NIST ThermoML archive (doi:10.1016/j.fluid.2012.05.003)
± gives the expanded uncertainty stated by the source.

Details: Crystal; DTA

For `O=C(O)CNCP(=O)(O)O` [(phosphonomethyl)glycine], the Normal melting temperature was 214.7 ± 0.5 °C.
